Patent US20180128830A1, “DETECTION OF HUMAN CYTOMEGALOVIRUS IN BREAST CANCER” (priority 2015, published 2018)
Several values for one entry are separate records, joined by “and”; a condition that tells them apart may be missing. Equal entries are not always repeated.

Key:
uPAR = uPAR ELISA on culture supernatants; format: cell-based, human; settings: 10 ng/ml
Description: DuoSet ELISA kits (R&D Systems) were used to quantify uPAR, PAI-1, and MMP-3. For uPAR and PAI-1 measurement, MDA cells were seeded in triplicate in 96-well plate at 5.0×10^4 cell/mL density with complete L-15 media and treated with 10 ng/mL of either cmvIL-10 or hIL-10 for the indicated times and supernatants were collected daily. The ELISA was carried out on supernatants according to manufacturer's instructions using and following the addition of substrate and stop solution, absorbance of the plate was measured at 450 nm using a Dynex Opsys MR microplate reader. Sample concentrations were interpolated from a standard curve using linear regression analysis. For cell-associated MMP-3, MDA cells were seeded in 96-well plates and treated with cmvIL-10 as above. Cells were treated with cell lysis buffer (150 mM NaCl, 20 mM HEPES, 0.5% Triton-X-100, 1.0 mM NaOV4, 1.0 mM EDTA, 0.1% NaN3) supplemented with 1× protease inhibitors (Calbiochem, EMD Chemicals, San Diego Calif.) and were collected daily for the indicated time points. The lysates were evaluated for MMP-3 according to the manufacturer's instructions (R&D Systems).

MDA-MB-231 cells = assay: Transcriptional profiling, Human Tumor Metastasis RT2 Profiler PCR Array; format: cell-based; settings: 100 ng/mL, 5 hrs
Description: RNA was harvested from 10×10^6 MDA-MB-231 cells that were mock treated or treated with 100 ng/mL cmvIL-10 or hIL-10 for 5 hrs using the RNeasy Midi Kit and RNAse-Free DNase set (Qiagen, Valencia, Calif.). From the isolated RNA, cDNA was prepared using the RT^2 First Strand Kit (SA Biosciences, Frederick, Md.) and subsequently loaded into a 96-well breast cancer metastasis profiler PCR array (PAHS-028ZD) with system RT^2 SYBR Green Mastermix (SA Biosciences). The plates were run using the CFX96 Real-Time system cycler (BioRad, Hercules, Calif.) with the following amplification program: 95° C. for 10 min, 95° C. for […] with a slow ramp rate for 1.0 c/sec and 60° C. for 1 min. The data from three biological replicates for each treatment was analyzed by the ΔΔCT method according to manufacturer's instructions using the RT^2 profiler PCR array data analysis program located on the SABiosciences web portal and is reported as fold change relative to control.

Stat3 = assay: Western blot for Stat3 phosphorylation in MDA-MB-231 cells; format: cell-based, human; settings: 100 ng/ml, 15 min
Description: For western blotting, cells were treated with 100 ng/ml cmvIL-10, hIL-10, IFNγ or PBS for 15 min, then harvested into cell lysis buffer (150 mM NaCl, 20 mM HEPES, 0.5% Triton-X-100, 1 mM NaOV4, 1 mM EDTA, 0.1% NaN3). Lysates were clarified, proteins were separated via SDS-PAGE, and then transferred to a nitrocellulose membrane. Then membrane was incubated in blocking solution (5% milk+1×TBS-T) for 1 hr, then probed with primary antibody at a 1:1000 dilution (total Stat3 or pStat3, total Stat1 or pStat1) in blocking solution overnight at 4° C. After washing, the membranes were incubated with a 1:2000 dilution of appropriate AP-conjugated secondary antibody and bands were detected using Western Blue stabilized AP substrate (Promega, Madison, Wis.). For analysis of secreted proteins, supernatants were collected at various time points, analyzed by SDS-PAGE and then immunoblotted as above for cmvIL-10, hIL-10, or serpin E1/PAI.

“hIL-10: purified recombinant human interleukin-10 from R&D Systems” was tested, and the uPAR protein levels (uPAR) was “elevated”, the “Fold Change vs. Mock, ACTB” value (MDA-MB-231 cells; ACTB mRNA) was 1.3287 fold and the “Fold Change vs. Mock, APC” value (MDA-MB-231 cells; APC mRNA) was 1.0052 fold. For the same substance, the “Fold Change vs. Mock, B2M” value (MDA-MB-231 cells; B2M mRNA) was 0.9897 fold, the “Fold Change vs. Mock, BRMS1” value (MDA-MB-231 cells; BRMS1 mRNA) was 1.1154 fold and the “Fold Change vs. Mock, CCL7” value (MDA-MB-231 cells; CCL7 mRNA) was 0.9314 fold. The “Fold Change vs. Mock, CD44” value (MDA-MB-231 cells; CD44 mRNA) was 1.3402 fold, the “Fold Change vs. Mock, CD82” value (MDA-MB-231 cells; CD82 mRNA) was 1.1019 fold and the “Fold Change vs. Mock, CDH1” value (MDA-MB-231 cells; CDH1 mRNA) was 0.7618 fold. The “Fold Change vs. Mock, CDH6” value (MDA-MB-231 cells; CDH6 mRNA) was 0.9314 fold, the “Fold Change vs. Mock, CDH11” value (MDA-MB-231 cells; CDH11 mRNA) was 1.0425 fold and the “Fold Change vs. Mock, CDKN2A” value (MDA-MB-231 cells; CDKN2A mRNA) was 0.9314 fold. The “Fold Change vs. Mock, CHD4” value (MDA-MB-231 cells; CHD4 mRNA) was 1.1115 fold, the “Fold Change vs. Mock, COL4A2” value (MDA-MB-231 cells; COL4A2 mRNA) was 1.51 fold and 1.5131 fold and the “Fold Change vs. Mock, CST7” value (MDA-MB-231 cells; CST7 mRNA) was 0.8858 fold. The “Fold Change vs. Mock, CTBP1” value (MDA-MB-231 cells; CTBP1 mRNA) was 0.9576 fold, the “Fold Change vs. Mock, CTNNA1” value (MDA-MB-231 cells; CTNNA1 mRNA) was 0.9428 fold and the “Fold Change vs. Mock, CTSK” value (MDA-MB-231 cells; CTSK mRNA) was 0.8482 fold. The “Fold Change vs. Mock, CTSL1” value (MDA-MB-231 cells; CTSL1 mRNA) was 0.8981 fold, the “Fold Change vs. Mock, CXCL12” value (MDA-MB-231 cells; CXCL12 mRNA) was 0.9314 fold and the “Fold Change vs. Mock, CXCR4” value (MDA-MB-231 cells; CXCR4 mRNA) was 0.8751 fold. For the same substance, the “Fold Change vs. Mock, DENR” value (MDA-MB-231 cells; DENR mRNA) was 0.9626 fold, the “Fold Change vs. Mock, EPHB2” value (MDA-MB-231 cells; EPHB2 mRNA) was 0.9028 fold and the “Fold Change vs. Mock, ETV4” value (MDA-MB-231 cells; ETV4 mRNA) was 1.0175 fold. For the same substance, the “Fold Change vs. Mock, EWSR1” value (MDA-MB-231 cells; EWSR1 mRNA) was 1.3104 fold, the “Fold Change vs. Mock, FAT1” value (MDA-MB-231 cells; FAT1 mRNA) was 1.4414 fold and the “Fold Change vs. Mock, FGFR4” value (MDA-MB-231 cells; FGFR4 mRNA) was 0.9693 fold. For the same substance, the “Fold Change vs. Mock, FLT4” value (MDA-MB-231 cells; FLT4 mRNA) was 1.0317 fold, the “Fold Change vs. Mock, FN1” value (MDA-MB-231 cells; FN1 mRNA) was 1.2100 fold and the “Fold Change vs. Mock, FXYD5” value (MDA-MB-231 cells; FXYD5 mRNA) was 1.0479 fold. The “Fold Change vs. Mock, GAPDH” value (MDA-MB-231 cells; GAPDH mRNA) was 1.2121 fold, the “Fold Change vs. Mock, GNRH1” value (MDA-MB-231 cells; GNRH1 mRNA) was 1.1647 fold and the “Fold Change vs. Mock, HGF” value (MDA-MB-231 cells; HGF mRNA) was 0.9314 fold. For the same substance, the “Fold Change vs. Mock, HPRT1” value (MDA-MB-231 cells; HPRT1 mRNA) was 1.3827 fold, the “Fold Change vs. Mock, HPSE” value (MDA-MB-231 cells; HPSE mRNA) was 0.8645 fold and the “Fold Change vs. Mock, HRAS” value (MDA-MB-231 cells; HRAS mRNA) was 1.0625 fold. The “Fold Change vs. Mock, HTATIP2” value (MDA-MB-231 cells; HTATIP2 mRNA) was 0.9138 fold, the “Fold Change vs. Mock, IGF1” value (MDA-MB-231 cells; IGF1 mRNA) was 0.9794 fold and the “Fold Change vs. Mock, IL1B” value (MDA-MB-231 cells; IL1B mRNA) was 0.6771 fold. The “Fold Change vs. Mock, IL18” value (MDA-MB-231 cells; IL18 mRNA) was 0.7526 fold, the “Fold Change vs. Mock, ITGA7” value (MDA-MB-231 cells; ITGA7 mRNA) was 0.8796 fold and the “Fold Change vs. Mock, ITGB3” value (MDA-MB-231 cells; ITGB3 mRNA) was 1.0317 fold. The “Fold Change vs. Mock, KISS1R” value (MDA-MB-231 cells; KISS1R mRNA) was 0.9314 fold, the “Fold Change vs. Mock, KISS1” value (MDA-MB-231 cells; KISS1 mRNA) was 1.5856 fold and the “Fold Change vs. Mock, KRAS” value (MDA-MB-231 cells; KRAS mRNA) was 0.9931 fold. For the same substance, the “Fold Change vs. Mock, MCAM” value (MDA-MB-231 cells; MCAM mRNA) was 1.0353 fold, the “Fold Change vs. Mock, MDM2” value (MDA-MB-231 cells; MDM2 mRNA) was 0.9461 fold and the “Fold Change vs. Mock, MET” value (MDA-MB-231 cells; MET mRNA) was 1.1173 fold. For the same substance, the “Fold Change vs. Mock, METAP2” value (MDA-MB-231 cells; METAP2 mRNA) was 1.0736 fold, the “Fold Change vs. Mock, MGAT5” value (MDA-MB-231 cells; MGAT5 mRNA) was 1.3590 fold and the “Fold Change vs. Mock, MMP2” value (MDA-MB-231 cells; MMP2 mRNA) was 1.5157 fold. For the same substance, the “Fold Change vs. Mock, MMP3” value (MDA-MB-231 cells; MMP3 mRNA) was 0.8080 fold, the “Fold Change vs. Mock, MMP7” value (MDA-MB-231 cells; MMP7 mRNA) was 0.8123 fold and the “Fold Change vs. Mock, MMP9” value (MDA-MB-231 cells; MMP9 mRNA) was 0.9347 fold. The “Fold Change vs. Mock, MMP10” value (MDA-MB-231 cells; MMP10 mRNA) was 0.6866 fold, the “Fold Change vs. Mock, MMP11” value (MDA-MB-231 cells; MMP11 mRNA) was 1.0867 fold and the “Fold Change vs. Mock, MMP13” value (MDA-MB-231 cells; MMP13 mRNA) was 0.9777 fold. For the same substance, the “Fold Change vs. Mock, MTA1” value (MDA-MB-231 cells; MTA1 mRNA) was 0.9395 fold, the “Fold Change vs. Mock, MTSS1” value (MDA-MB-231 cells; MTSS1 mRNA) was 1.2397 fold and the “Fold Change vs. Mock, MYC” value (MDA-MB-231 cells; MYC mRNA) was 0.7423 fold. The “Fold Change vs. Mock, MYCL1” value (MDA-MB-231 cells; MYCL1 mRNA) was 1.0644 fold, the “Fold Change vs. Mock, NF2” value (MDA-MB-231 cells; NF2 mRNA) was 1.3496 fold and the “Fold Change vs. Mock, NME1” value (MDA-MB-231 cells; NME1 mRNA) was 1.1000 fold. For the same substance, the “Fold Change vs. Mock, NME4” value (MDA-MB-231 cells; NME4 mRNA) was 0.9965 fold, the “Fold Change vs. Mock, NR4A3” value (MDA-MB-231 cells; NR4A3 mRNA) was 0.8151 fold and the “Fold Change vs. Mock, PLAUR” value (MDA-MB-231 cells; PLAUR (uPAR) mRNA) was 1.87 fold and 1.8628 fold. For the same substance, the “Fold Change vs. Mock, PNN” value (MDA-MB-231 cells; PNN mRNA) was 1.2901 fold, the “Fold Change vs. Mock, PTEN” value (MDA-MB-231 cells; PTEN mRNA) was 0.8645 fold and the “Fold Change vs. Mock, RB1” value (MDA-MB-231 cells; RB1 mRNA) was 0.9298 fold. The “Fold Change vs. Mock, RORB” value (MDA-MB-231 cells; RORB mRNA) was 0.8827 fold, the “Fold Change vs. Mock, RPLP0” value (MDA-MB-231 cells; RPLP0 mRNA) was 1.0000 fold and the “Fold Change vs. Mock, RPSA” value (MDA-MB-231 cells; RPSA mRNA) was 1.0886 fold. The “Fold Change vs. Mock, SERPINE1” value (MDA-MB-231 cells; SERPINE1 (PAI-1) mRNA) was 3.12 fold and 3.0262 fold, the “Fold Change vs. Mock, SET” value (MDA-MB-231 cells; SET mRNA) was 0.9234 fold and the “Fold Change vs. Mock, SMAD2” value (MDA-MB-231 cells; SMAD2 mRNA) was 0.7859 fold. For the same substance, the “Fold Change vs. Mock, SMAD4” value (MDA-MB-231 cells; SMAD4 mRNA) was 0.8279 fold, the “Fold Change vs. Mock, SRC” value (MDA-MB-231 cells; SRC mRNA) was 0.9760 fold and the “Fold Change vs. Mock, SSTR2” value (MDA-MB-231 cells; SSTR2 mRNA) was 0.7120 fold. The “Fold Change vs. Mock, SYK” value (MDA-MB-231 cells; SYK mRNA) was 0.9314 fold, the “Fold Change vs. Mock, TCF20” value (MDA-MB-231 cells; TCF20 mRNA) was 0.9676 fold and the “Fold Change vs. Mock, TGEB1” value (MDA-MB-231 cells; TGEB1 (Transforming growth factor, beta 1) mRNA) was 0.9931 fold. For the same substance, the “Fold Change vs. Mock, TIMP2” value (MDA-MB-231 cells; TIMP2 mRNA) was 0.8601 fold, the “Fold Change vs. Mock, TIMP3” value (MDA-MB-231 cells; TIMP3 mRNA) was 0.7631 fold and the “Fold Change vs. Mock, TIMP4” value (MDA-MB-231 cells; TIMP4 mRNA) was 0.9122 fold. The “Fold Change vs. Mock, TNFSF10” value (MDA-MB-231 cells; TNFSF10 mRNA) was 0.7955 fold, the “Fold Change vs. Mock, TP53” value (MDA-MB-231 cells; TP53 mRNA) was 0.8873 fold and the “Fold Change vs. Mock, TRPM1” value (MDA-MB-231 cells; TRPM1 mRNA) was 0.9314 fold. For the same substance, the “Fold Change vs. Mock, TSHR” value (MDA-MB-231 cells; TSHR mRNA) was 0.9314 fold, the “Fold Change vs. Mock, VEGFA” value (MDA-MB-231 cells; VEGFA mRNA) was 0.5987 fold and the “VEGFA fold change expressed as negative fold (down-regulation)” value (MDA-MB-231 cells; VEGFA mRNA) was 1.67 fold. The “83 kD band of phosphorylated Stat3 (pStat3)” value (Stat3) was “detected”.
